Assay results: patent US20220030866A1, “CONJUGATES OF AUXIN ANALOGS” (The State of Israel, Ministry of Agriculture & Rural …, priority 2019, published 2022)
Marks after values point to notes of the source that are not given here.

What was measured:
mung bean cuttings = assay: rooting of mung bean cuttings (number of adventitious roots per cutting); format: in vivo; conditions: for rooting of mung bean cuttings (number of roots per cutting): 50 μM; for effect on AR formation in mung bean cuttings, in words: tested at 2, 10 or 50 μM
Procedure: Mung bean cuttings have been used for many years as a model for assessing the effect of plant hormones and synthetic chemicals on the rooting process. In the present study, this system was used to ascertain activity of conjugates in inducing adventitious root (AR) formation, and to evaluate the rate of conjugate hydrolysis that releases the free active auxin. […] The rooting activity in this system is determined by the number of adventitious roots per cutting.
The mung bean model was used to examine the activity of conjugates of three phenoxy acids, 4-CPA, MCPA, and 2-DP, on rooting. For comparison, plants were treated with (unconjugated) IBA or with 2-DP conjugated to glycine methyl ester (Gly-ME).

[1] = test system: cuttings from mature Eucalyptus grandis trees; assay: rooting of cuttings from mature Eucalyptus grandis trees; format: in vivo; conditions: for appearance of the roots compared with IBA alone: 6000 ppm IBA with 100 μM compound, submersion and spraying
Method in brief: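 Cuttings (12-15 cm, two upper leaves halved) from branches of 8-year-old net-house plants; bases dipped 1 min in 6000 ppm IBA potassium salt plus 50 μM conjugate, leaves sprayed with 50 μM conjugate in 0.5% Triton X-100. Rooted at 25° C, 90% humidity, peat:vermiculite:polystyrene 1:2:3; rooting scored after 30-60 days.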

Arabidopsis seedlings [2] = assay: root elongation inhibition in Arabidopsis seedlings; format: in vivo; conditions: for effect on root elongation relative to control, in words: after 5 days
Procedure: (§1) Adventitious roots (ARs) were induced in intact plants, using previously described procedures [Gutierrez et al., Plant Cell 2009, 21:3119-3132; Abu-Abied et al., Plant J 2012, 71:787-799; Rasmussen et al., Plant Physiol 2012, 158:1976-1987]. Briefly, seeds were germinated on MS/0.8% agar plates supplemented with 3% sucrose. The plates were kept in the dark for 2 days at 4° C., then 5 days at 22° C. in the dark, 2 days in the light, 3 days in the dark and then additional 4 days in the light to complete 2 weeks when roots were counted using a stereoscope. Sensitivity to auxin and/or auxin analogs was determined by following root elongation on vertical plates. The 4-day-old seedlings were transferred to MS plates containing 0.05 or 0.5 μM IAA and the root length was measured after 5 days, including the number of LRs in each root and calculation of the LR density. Each treatment experiment included 10-15 plants and was repeated 3 times.
A common technique for evaluating auxin activity is by determining the ability of a compound to inhibit root elongation [Zolman et al., Genetics 2000, 156:1323-1337]. In order to use this assay for comparing auxin activities of different conjugates, the minimum concentration of free 4-CPA that is active in the root elongation inhibition assay was determined. Four days old seedlings were placed in vertical plates containing increasing concentrations of 4-CPA. The root lengths were marked daily during 5 days.
Based on the above results, the effect of conjugates of 4-CPA (Compounds 1o-1t) on root elongation after 5 days was determined at concentrations of 50 nM.

[3] = test system: argan (Argania spinosa) cuttings; assay: rooting of argan cuttings; format: in vivo
Procedure: The ability of exemplary conjugates to promote rooting in plants which are recalcitrant to rooting (in addition to the results obtained with Eucalyptus grandis in Example 3) was examined using cuttings of argan (Argania spinosa) and jojoba (Simmondsia chinensis) in a commercial nursery (Shorashim). The argan and jojoba cuttings were treated with 100 μM of a conjugate (any of Compounds 10-1t) with 6000 ppm IBA. The common treatment T-8 (talc with 8000 ppm IBA and a fungicide) or 6000 ppm IBA (without conjugate) served as a control.
Exemplary conjugates were also tested for rooting the hard-to-root species of avocado (VC801 rootstock) and argan, according to procedures described hereinabove.

[4] = test system: avocado rootstock cuttings; assay: rooting of avocado rootstock cuttings; format: in vivo
Method in brief: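 Green cuttings of avocado rootstock (including hard-to-root VC801) were treated with auxin conjugates in the presence of IBA and scored for rooting.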

[5] = test system: Eucalyptus brachyphylla cuttings; assay: rooting of Eucalyptus brachyphylla cuttings; format: in vivo; conditions: K-IBA alone or with 100 μM compound
Procedure: (§2) In order to investigate cloning of productive eucalyptus trees from cuttings, branches were excised from mature Eucalyptus x trabutii and Eucalyptus brachyphylla trees the field (in Kfar Pines, Israel)—selected based on their exceptional nectar production and honeybee attraction—placed in a humidified cooler box and brought to a climate-controlled greenhouse within 2 hours. Each cutting, 7 cm long, included three nodes with only two leaves remaining at its apical end. Two-thirds of each blade was excised to minimize evapotranspiration. The cutting bases were submerged for 1 minute in 6 grams/liter indole-3-butyric acid potassium salt (K-IBA), optionally supplemented with Compound 1s or 1t at a concentration of 100 μM. In addition, the leaves were sprayed with 100 μM of each compound in the presence of 0.05% Triton X-100 surfactant. Stock solutions of Compounds 1s and 1t were at a concentration of 100 mM in DMSO. The cuttings were planted in rooting medium containing peat, vermiculite and polystyrene flakes at a ratio of 1:2:3 respectively, on a heated rooting table under 90% humidity. Fungicides were applied to the rooting media on a weekly basis. Rooting percentage, number of roots per cutting and root length were measured after 1 and 2 weeks and after 1 and 2 months.

[6] = test system: Eucalyptus x trabutii cuttings; assay: rooting of Eucalyptus x trabutii cuttings; format: in vivo; conditions: K-IBA alone or with 100 μM compound
Procedure: as §2

[7] = test system: cuttings from mature Eucalyptus grandis trees; conditions: literature value for this model (Abu-Abied et al. 2012); cited from earlier work
DR5:venus marker = assay: auxin activity by DR5:venus fluorescence in Arabidopsis plants; format: in vivo; conditions: 10 μM
Procedure: Imaging was performed using an SP8 Leica confocal microscope including solid-state lasers producing 405, 488, 514 and 552 nm light, and hybrid or PMT detectors. Objectives were either PL APO 20×/0.75, WD 0.62 mm or PL APO 63×/1.2 WD 0.3 mm. For fluorescence measurements, the Imaris™ spot detection option (Bitplane A.G.) was used to segment nuclei and calculate the average signal intensity.
One technique for assessing auxin activity of the 4-CPA amino acid conjugates utilized plants expressing nucleus-localized, fluorescent DR5:venus marker, the expression level of which is an indicator of intracellular auxin activity [Laskowski et al., PLoS Biol 2008, 6:e307]. Four days old seedlings grown on regular MS medium were transferred to plates containing 10 μM of the tested compounds and fluorescence was inspected by confocal microscope after 24 hours.
In order to assess the ability of the abovementioned sodium salts to penetrate the cells and activate an auxin response, an Arabidopsis DR5-Venus model was utilized (as described hereinabove). The plants were exposed to 10 μM of each compound for 24 hour; MS medium was used as a negative control, and the related Compounds 1p, 1r and 1t were used as positive controls.

Arabidopsis seedlings [8] = assay: adventitious root formation in intact etiolated Arabidopsis seedlings; format: in vivo; conditions: for adventitious roots formed on average: intact etiolated seedlings, 50 nM, FIG. 17 legend 10 μM for one hour
Procedure: as §1
In a third assay utilizing an Arabidopsis model, induction of adventitious root AR formation in intact plants was examined in the presence of 50 nM of tested compounds, which included 5 days incubation in the dark, followed by a shift to the light, according to procedures described by Sorin et al. [Plant Cell 2005, 17:1343-1359].
Conjugates prepared as described herein were evaluated in an Arabidopsis rooting model, according to procedures such as described hereinabove. Seeds were germinated and kept in the dark for 4 days. The etiolated seedlings were then incubated for 1 hour in 10 μM of each compound and then transferred to vertical MS medium-containing plates.

[9] = test system: Pinus halepensis cuttings; assay: rooting and root development in pine cuttings; format: in vivo; conditions: 400 ppm IBA potassium salt + 5 ppm conjugate, 4 hours dip; 12 weeks
Procedure: The effects of exemplary D-amino acid conjugates of 4-CPA (Compounds to and Is) on rooting in Pinus halepensis cuttings were compared with those of 2-DP-glycine methyl ester conjugate (2-DP-Gly). Rooting mature pine cuttings (i.e., cuttings that are taken from trees more than 4 years old) is very difficult.
Apical cuttings were taken from 7-year-old trees, stored for 4 weeks at 4° C., and treated by dipping the cutting bases for 4 hours in the following solution: 400 ppm IBA potassium salt+5 ppm tested conjugate+0.1% Amistar™ fungicide (250 grams/liter azoxystrobin). The cuttings were evaluated after 12 weeks.

Arabidopsis seedlings [10] = assay: split petri dish assay, separate shoot or root application in etiolated Arabidopsis seedlings; format: in vivo; conditions: 10 μM
Description: The observation that AR enhancement in Eucalyptus cuttings was higher when 4-CPA conjugates were applied also to the leaves (as described in Example 3) prompted further investigation into the functions of shoot-derived 4-CPA. To this end, 4-CPA or Compounds 1p and it were applied specifically to roots or shoots of five-day old etiolated Arabidopsis seedlings using a split petri dish (as depicted in FIG. 26) and the effect on root elongation, lateral root (LR) formation and adventitious root (AR) formation was evaluated.
Arabidopsis plants were germinated and grown in the dark for 5 days, then then transferred to petri dishes with a partition in the middle. Each half of these plates contained either medium alone or with 10 μM of 4-CPA or Compound 1p or 1tl. The etiolated seedlings were put on the plates with their collet region on the partition such that either the hypocotyl and cotyledons, or the root or both were in touch with the medium containing the tested compound. Adventitious roots and lateral roots were counted and the length of the primary root was measured after a week.

[11] = test system: cuttings from mature Eucalyptus grandis trees; assay: rooting of cuttings from mature Eucalyptus grandis trees; format: in vivo; conditions: 100 μM compound by submerging or spraying, with 6000 ppm IBA
[12] = after 1.5 months, compound with IBA, or IBA control

O=C(O)CCCc1c[nH]c2ccccc12 [IBA, indole-3-butyric acid, reference compound]
rooting of mung bean cuttings (number of roots per cutting) (mung bean cuttings; Table 1, water control 29.6): 81.0 | rooting of mung bean cuttings (number of roots per cutting) (mung bean cuttings; Table 2): 101 | percentage of cuttings which exhibited rooting, stand-alone treatment ([1]; 100 μM conjugate without IBA, or 28 mM (6000 ppm) IBA alone, submerging base or spraying, scored after 45-60 days): 12% | rooting of cuttings, repeated experiment in a different season ([1]; Example 12 repeat: 6000 ppm IBA with 50 μM conjugate, or IBA control): 10% | effect on root elongation relative to control, in words (Arabidopsis seedlings [2]; 50 nM): no apparent inhibitory effect on root elongation | concentration required to inhibit root elongation (Arabidopsis seedlings [2]; 4 day old seedlings, 5 days on vertical plates): 1 to 10 µM | rooting in argan clone YM3 [3, 12]: 50% | roots per cutting in argan clone YM3 [3, 12]: 2-3 | rooting of VC801 avocado cuttings ([4]; VC801 rootstock, conjugate, or IBA control): about 35% | rooting rate of etiolated avocado branches ([4]; vc51 rootstock, IBA): 80% | rooting rate of green avocado branches ([4]; vc51 rootstock, IBA): 10% | mean root number per cutting, E. brachyphylla [5]: about 4 | mean root number per cutting, E. x trabutii [6]: about 5 | root development in the presence of IBA potassium salt [7]: 5-15%

COC(=O)[C@H](NC(=O)COc1ccc(Cl)cc1)C(C)C [Compound 1o]
effect on AR formation in mung bean cuttings, in words (mung bean cuttings): induced rooting to a degree positively correlated with concentration | appearance of the roots compared with IBA alone [1]: appeared more branched | DR5 fluorescence (auxin activity), in words (DR5:venus marker): significantly lower fluorescence | effect on root elongation relative to control, in words (Arabidopsis seedlings [2]; 50 nM): did not affect root elongation | adventitious roots formed on average (Arabidopsis seedlings [8]): 0.5±0.3 | Degree of root development Medium (%) [9]: 14.3% | Degree of root development Weak (%) [9]: 7.2% | Degree of root development Well-developed (%) [9]: 71.4* % | Rooting rate (%) [9]: 100%

COC(=O)[C@H](CC(C)C)NC(=O)COc1ccc(Cl)cc1 [4-CPA-L-Leu-methyl ester]
root number compared to IBA control, in words ([1]; Example 12: 6000 ppm IBA and 50 μM conjugate dip plus spray): promoted an increase in root number | average number of adventitious roots (Arabidopsis seedlings [8]; Example 12: etiolated seedlings, 1 hour in 10 μM): 10 | number of roots per cutting in argan clone YM3 compared to IBA control, in words ([3]; in vivo): considerably increased the number of roots per cutting | root architecture / root length of VC801 avocado cuttings compared to IBA control, in words ([4]; VC801 rootstock): considerably increased root length

COC(=O)[C@@H](NC(=O)COc1ccc(Cl)cc1)C(C)C [Compound 1p, 4-CPA-L-Val]
effect on AR formation in mung bean cuttings, in words (mung bean cuttings): induced rooting only at low concentrations | percentage of adventitious root formation (rooting) ([1]; 6000 ppm IBA and 100 μM conjugate by submersion of base plus spraying of foliage): 51±8% | appearance of the roots compared with IBA alone [1]: appeared more branched | effect on root tip and root elongation zone (DR5:venus marker): loss of auxin activity at the root tip, and swelling of the root elongation zone | effect on root elongation relative to control, in words (Arabidopsis seedlings [2]; 50 nM): inhibited root elongation relative to control | time course of root elongation inhibition (Arabidopsis seedlings [2]; 50 nM, slight inhibition until day 3, complete from day 4): biphasic behavior | adventitious roots formed on average (Arabidopsis seedlings [8]): 7±1.4 | effect on root growth of application to the shoot compared with application directly to the root (Arabidopsis seedlings [10]; 24 hours on split dish): even stronger | adventitious root formation, exposure of shoots compared to exposure of roots (Arabidopsis seedlings [10]; split dish): significantly more adventitious root formation | lateral root formation, shoot application compared with root application (Arabidopsis seedlings [10]; split dish): inhibited lateral root formation more efficiently than application to roots | rooting in combination with IBA compared with IBA alone, in words [11]: at least as potent as that of their corresponding D-amino acid conjugates
